Experimental data: ChEMBL document CHEMBL2177070, “The effect of the placement and total charge of the basic amino acid clusters on antibacterial organism selectivity and potency” (Bioorg Med Chem, 2011); call rule not given here
In brackets after ≈: the same amount, converted by molar mass. Square brackets hold non-standard residues; d marks the D form. Peptide text beside a SMILES is read from it. ξ: configuration not given here. Oic(3aξ,7aξ) = O=C(O)[C@@H]1CC2CCCCC2N1; Tiq1c(1S) = O=C(O)[C@H]1NCCc2ccccc21

Columns and labels:
[1] = system: Yersinia pestis; assay: Antimicrobial activity against Yersinia pestis CO92; type: functional
[2] = system: Brucella melitensis; assay: Antimicrobial activity against Brucella melitensis 16M; type: functional
[3] = Binding affinity to 1-palmitoyl-2-oleoyl-sn-glycero-3-phosphocholine/1-palmitoyl- 2-oleoyl-sn-glycero-3-[phospho-rac-(1-glycerol)] (sodium salt) large unilamellar vesicle in 40 mM phosphate buffer at pH 6.8 at 100 uM by Far-UV CD spectra analysis; type: physicochemical; conditions: pH 6.8, 100 µM
[4] = system: Brucella suis; assay: Antimicrobial activity against Brucella suis 23444; type: functional
[5] = Binding affinity to 1-palmitoyl-2-oleoyl-sn-glycero-3-phosphocholine/1-palmitoyl- 2-oleoyl-sn-glycero-3-[phospho-rac-(1-glycerol)] (sodium salt) large unilamellar vesicle at 200 uM by isothermal titration calorimetry analysis; type: physicochemical
[6] = system: Brucella abortus; assay: Antimicrobial activity against Brucella abortus 2308; type: functional
[7] = Binding affinity to 1-palmitoyl-2-oleoyl-sn-glycero-3-phosphocholine large unilamellar vesicle in 40 mM phosphate buffer at pH 6.8 at 100 uM by Far-UV CD spectra analysis; type: physicochemical; conditions: pH 6.8, 100 µM
[8] = Binding affinity to SDS micelles by CD spectra analysis; type: physicochemical
[9] = Induction of calcein leakage in 1-palmitoyl-2-oleoyl-sn-glycero-3-phosphocholine large unilamellar vesicle at 4 to 20 uM after 90 mins by fluorescence assay; type: physicochemical; conditions: 1.5 h
[10] = system: Bacillus anthracis; assay: Antimicrobial activity against Bacillus anthracis AMES; type: functional
[11] = system: Francisella tularensis subsp. tularensis SCHU S4; assay: Antimicrobial activity against Francisella tularensis SCHUS4; type: functional
[12] = Induction of calcein leakage in 1-palmitoyl-2-oleoyl-sn-glycero-3-phosphocholine/1-palmitoyl- 2-oleoyl-sn-glycero-3-[phospho-rac-(1-glycerol)] (sodium salt) large unilamellar vesicle at 4 to 20 uM after 90 mins by fluorescence assay; type: physicochemical; conditions: 1.5 h
[13] = system: Staphylococcus aureus; assay: Antimicrobial activity against Staphylococcus aureus ATCC 33591; type: functional
[14] = system: Acinetobacter baumannii; assay: Antimicrobial activity against Acinetobacter baumannii ATCC 19606; type: functional
[15] = system: Burkholderia pseudomallei; assay: Antimicrobial activity against Burkholderia pseudomallei; type: functional
[16] = Binding affinity to 1-palmitoyl-2-oleoyl-sn-glycero-3-phosphocholine large unilamellar vesicle at 100 uM by isothermal titration calorimetry analysis; type: physicochemical
[17] = Binding affinity to DPC micelles by CD spectra analysis; type: physicochemical
[18] = system: Acinetobacter baumannii; assay: Antimicrobial activity against Acinetobacter baumannii WRAIR; type: functional
[19] = system: Burkholderia mallei; assay: Antimicrobial activity against Burkholderia mallei; type: functional
[20] = Induction of calcein leakage in 1-palmitoyl-2-oleoyl-sn-glycero-3-phosphocholine/1-palmitoyl- 2-oleoyl-sn-glycero-3-[phospho-rac-(1-glycerol)] (sodium salt) large unilamellar vesicle assessed as leakage constant after 90 mins by fluorescence assay; type: physicochemical; conditions: 1.5 h
[21] = Binding affinity to 1-palmitoyl-2-oleoyl-sn-glycero-3-phosphocholine small unilamellar vesicle in 40 mM phosphate buffer at pH 6.8 at 100 uM by Far-UV CD spectra analysis; type: physicochemical; conditions: pH 6.8, 100 µM
[22] = Binding affinity to 1-palmitoyl-2-oleoyl-sn-glycero-3-phosphocholine/1-palmitoyl- 2-oleoyl-sn-glycero-3-[phospho-rac-(1-glycerol)] (sodium salt) small unilamellar vesicle in 40 mM phosphate buffer at pH 6.8 at 100 uM by Far-UV CD spectra analysis; type: physicochemical; conditions: pH 6.8, 100 µM
[23] = Induction of calcein leakage in 1-palmitoyl-2-oleoyl-sn-glycero-3-phosphocholine large unilamellar vesicle assessed as leakage constant after 90 mins by fluorescence assay; type: physicochemical; conditions: 1.5 h
[24] = Binding affinity to 1-palmitoyl-2-oleoyl-sn-glycero-3-phosphocholine large unilamellar vesicle in 40 mM phosphate buffer at pH 6.8 at 75 uM by Far-UV CD spectra analysis; type: physicochemical; conditions: pH 6.8, 75 µM
[25] = system: Bacillus subtilis; assay: Antimicrobial activity against Bacillus subtilis; type: functional
[26] = Binding affinity to 1-palmitoyl-2-oleoyl-sn-glycero-3-phosphocholine/1-palmitoyl- 2-oleoyl-sn-glycero-3-[phospho-rac-(1-glycerol)] (sodium salt) large unilamellar vesicle in 40 mM phosphate buffer at pH 6.8 at 75 uM by Far-UV CD spectra analysis; type: physicochemical; conditions: pH 6.8, 75 µM
[27] = system: Mycobacterium; assay: Antimicrobial activity against Mycobacterium ranae; type: functional
[28] = Binding affinity to 1-palmitoyl-2-oleoyl-sn-glycero-3-phosphocholine/1-palmitoyl- 2-oleoyl-sn-glycero-3-[phospho-rac-(1-glycerol)] (sodium salt) small unilamellar vesicle in 40 mM phosphate buffer at pH 6.8 at 75 uM by Far-UV CD spectra analysis; type: physicochemical; conditions: pH 6.8, 75 µM
[29] = system: Salmonella typhimurium; assay: Antimicrobial activity against Salmonella typhimurium; type: functional, Salmonella enterica subsp. enterica serovar Typhimurium; conditions: Salmonella enterica
[30] = Binding affinity to 1-palmitoyl-2-oleoyl-sn-glycero-3-phosphocholine small unilamellar vesicle in 40 mM phosphate buffer at pH 6.8 at 75 uM by Far-UV CD spectra analysis; type: physicochemical; conditions: pH 6.8, 75 µM
[31] = Binding affinity to 1-palmitoyl-2-oleoyl-sn-glycero-3-phosphocholine large unilamellar vesicle at 200 uM by isothermal titration calorimetry analysis; type: physicochemical
[32] = system: Staphylococcus aureus; assay: Antimicrobial activity against ME/GM/TC-resistant Staphylococcus aureus; type: functional

| Structure (SMILES) | MIC [1] [µM] | MIC [2] [µM] | Activity [3] | MIC [4] [µM] | Activity [5] | MIC [6] [µM] | Activity [7] | Activity [8] | MIC [10] [µM] | MIC [11] [µM] | Activity [12] | MIC [13] [µM] | MIC [14] [µM] | MIC [15] [µM] | Activity [16] | Activity [17] | MIC [18] [µM] | MIC [19] [µM] | K [20] | K [23] | further results |
| --- | --- | --- | --- | --- | --- | --- | --- | --- | --- | --- | --- | --- | --- | --- | --- | --- | --- | --- | --- | --- | --- |
| CC(=O)NCC(=O)N[C@@H](Cc1ccccc1)C(=O)N1CCc2ccccc2[C@H]1C(=O)N1C2CCCCC2C[C@H]1C(=O)NCC(=O)N[C@@H](CCCCN)C(=O)N1CCc2ccccc2[C@H]1C(=O)N1C2CCCCC2C[C@H]1C(=O)NCC(=O)N[C@@H](Cc1ccccc1)C(=O)N1CCc2ccccc2[C@H]1C(=O)N1C2CCCCC2C[C@H]1C(=O)NCC(=O)N[C@@H](CCCCN)C(=O)N1CCc2ccccc2[C@H]1C(=O)N[C@@H](CCCCN)C(=O)N[C@@H](CCCCN)C(=O)N[C@@H](CCCCN)C(N)=O (stereo partly drawn) (Ac-GF[Tiq1c(1S)][Oic(3aξ,7aξ)]GK[Tiq1c(1S)][Oic(3aξ,7aξ)]GF[Tiq1c(1S)][Oic(3aξ,7aξ)]GK[Tiq1c(1S)]KKK-NH2) | 27 (≈ 62.4 µg/mL) | 54 (≈ 125 µg/mL) | Active | > 216 | Active | 27 (≈ 62.4 µg/mL) | Active | Active | 27 (≈ 62.4 µg/mL) | 0.02 (≈ 0.0463 µg/mL) | Active | 54 (≈ 125 µg/mL) | 6.7 (≈ 15.5 µg/mL) | 0.02 (≈ 0.0463 µg/mL) | Active | Active | 3.4 (≈ 7.86 µg/mL) | 0.02 (≈ 0.0463 µg/mL) | 0.075 | 0.014 | Activity [9]: Active; Activity [21]: Active; Activity [22]: Active |
| CC(=O)NCC(=O)N[C@@H](Cc1ccccc1)C(=O)N1CCc2ccccc2[C@H]1C(=O)N1C2CCCCC2C[C@H]1C(=O)NCC(=O)N[C@@H](CCCCN)C(=O)N1CCc2ccccc2[C@H]1C(=O)N1C2CCCCC2C[C@H]1C(=O)NCC(=O)N[C@@H](Cc1ccccc1)C(=O)N1CCc2ccccc2[C@H]1C(=O)N1C2CCCCC2C[C@H]1C(=O)NCC(=O)N[C@@H](CCCCN)C(=O)N1CCc2ccccc2[C@H]1C(=O)N[C@@H](CCCCN)C(=O)N[C@@H](CCCCN)C(=O)N[C@@H](CCCCN)C(=O)N[C@@H](CCCCN)C(N)=O (stereo partly drawn) (Ac-GF[Tiq1c(1S)][Oic(3aξ,7aξ)]GK[Tiq1c(1S)][Oic(3aξ,7aξ)]GF[Tiq1c(1S)][Oic(3aξ,7aξ)]GK[Tiq1c(1S)]KKKK-NH2) | 205 (≈ 500 µg/mL) | 205 (≈ 500 µg/mL) |  | 205 (≈ 500 µg/mL) | Active | 205 (≈ 500 µg/mL) |  | Active | 12.8 (≈ 31.2 µg/mL) | 100 (≈ 244 µg/mL) | Not Active | 205 (≈ 500 µg/mL) | 3.2 (≈ 7.81 µg/mL) | 205 (≈ 500 µg/mL) |  | Active | 3.2 (≈ 7.81 µg/mL) | 205 (≈ 500 µg/mL) | 0.089 | 0.097 | Activity [24]: Active; MIC [25]: 1 µM (≈ 2.44 µg/mL); Activity [26]: Active; MIC [27]: 10 µM (≈ 24.4 µg/mL); Activity [28]: Active; MIC [29]: 10 µM (≈ 24.4 µg/mL); Activity [30]: Active; Activity [31]: Active; MIC [32]: 3 µM (≈ 7.32 µg/mL) |
| CC(=O)N[C@@H](CCCCN)C(=O)N[C@@H](CCCCN)C(=O)N[C@@H](CCCCN)C(=O)N[C@@H](CCCCN)C(=O)NCC(=O)N[C@@H](Cc1ccccc1)C(=O)N1CCc2ccccc2[C@H]1C(=O)N1C2CCCCC2C[C@H]1C(=O)NCC(=O)N[C@@H](CCCCN)C(=O)N1CCc2ccccc2[C@H]1C(=O)N1C2CCCCC2C[C@H]1C(=O)NCC(=O)N[C@@H](Cc1ccccc1)C(=O)N1CCc2ccccc2[C@H]1C(=O)N1C2CCCCC2C[C@H]1C(=O)NCC(=O)N[C@@H](CCCCN)C(=O)N1CCc2ccccc2[C@H]1C(N)=O (stereo partly drawn) (Ac-KKKKGF[Tiq1c(1S)][Oic(3aξ,7aξ)]GK[Tiq1c(1S)][Oic(3aξ,7aξ)]GF[Tiq1c(1S)][Oic(3aξ,7aξ)]GK[Tiq1c(1S)]-NH2) | 13.1 (≈ 32 µg/mL) | 51 (≈ 124 µg/mL) | Active | 25.6 (≈ 62.5 µg/mL) | Active | 51 (≈ 124 µg/mL) | Active | Active | 0.4 (≈ 0.976 µg/mL) | 51 (≈ 124 µg/mL) | Active | 102 (≈ 249 µg/mL) | 12.8 (≈ 31.2 µg/mL) | 204 (≈ 498 µg/mL) | Active | Active | 12.8 (≈ 31.2 µg/mL) | 204 (≈ 498 µg/mL) | 0.0085 | 0.57 | Activity [9]: Active; MIC [27]: 3 µM (≈ 7.32 µg/mL); MIC [29]: 100 µM (≈ 244 µg/mL); Activity [21]: Active; Activity [22]: Active; MIC [32]: 30 µM (≈ 73.2 µg/mL) |
| CC(=O)NCC(=O)N[C@@H](Cc1ccccc1)C(=O)N1CCc2ccccc2[C@H]1C(=O)N1C2CCCCC2C[C@H]1C(=O)NCC(=O)N[C@@H](CCCCN)C(=O)N1CCc2ccccc2[C@H]1C(=O)N1C2CCCCC2C[C@H]1C(=O)NCC(=O)N[C@@H](Cc1ccccc1)C(=O)N1CCc2ccccc2[C@H]1C(=O)N1C2CCCCC2C[C@H]1C(=O)NCC(=O)N[C@@H](CCCCN)C(=O)N1CCc2ccccc2[C@H]1C(=O)N[C@@H](CCCCN)C(=O)N[C@@H](CCCCN)C(=O)N[C@@H](CCCCN)C(=O)N[C@@H](CCCCN)C(=O)N[C@@H](CCCCN)C(N)=O (stereo partly drawn) (Ac-GF[Tiq1c(1S)][Oic(3aξ,7aξ)]GK[Tiq1c(1S)][Oic(3aξ,7aξ)]GF[Tiq1c(1S)][Oic(3aξ,7aξ)]GK[Tiq1c(1S)]KKKKK-NH2) |  |  | Active |  | Active |  | Active |  |  |  | Not Active |  |  |  | Active |  |  |  | 0.073 | 0.0011 | MIC [25]: 1 µM (≈ 2.57 µg/mL); MIC [27]: 3 µM (≈ 7.71 µg/mL); MIC [29]: 10 µM (≈ 25.7 µg/mL); Activity [21]: Active; Activity [22]: Active; MIC [32]: 3 µM (≈ 7.71 µg/mL) |
